Results as given in patent publication US8389019B2, “Method for improving the quality of meat by reducing boar taint” (priority 2007, dated 2013).
Marks after values point to notes of the source that are not given here.

Assays:
testes of a male pig = assay: Example 3: pattern of testicular shrinkage after intratesticular injection in male pig; type: in vivo; conditions: 1 ml of 10% by weight solution per testis
testis = assay: Example 2: beagle puppy injected in each testis, testes excised at 30 months; type: in vivo, beagle dog; conditions: 0.25 ml per testis (13.1 mg/ml zinc), dorsal cranial, injected at six months, sacrificed at 30 months; control 6.8 g
Description: A beagle puppy weighing 19 lbs at six months of age was injected in each testis with 0.25 ml of a chemical sterilant containing 13.1 mg/ml of zinc as zinc gluconate neutralized by 34.8 mg/ml of l-arginine with the pH adjusted to 7.0 with hydrochloric acid. The injection was into the dorsal cranial portion of the testis as could best be estimated externally.
The treated animal was sacrificed at 30 months of age when he weighed 31 lbs. The testes were excised and each weighed 3.5 g.
A control beagle weighing 18 lbs at six months was housed with the treated animal. This animal was also sacrificed at 30 months. The control dog weighed 30 lbs and each testis weighed 6.8 g. A histological section of the rete testis of the control animal was taken and a light micrograph of the section at 10× is shown in FIG. 2.

[1] = system: testes of Sprague Dawley male rats; assay: Example 4: infertility/sterility in rats, dorsal cranial vs midline injection, histopathology of epididymides and testes; type: in vivo, rat; conditions: 0.1 ml 10% per testis; for infertility/sterility achieved, share of rats: two months post-injection, 10 rats
Description: Twenty (20) Sprague Dawley, male rats were divided into two groups of ten (10) rats per group. […] Two months post-injection, both groups were sacrificed, and all of the epididymides and testes were evaluated by histopathology.

[2] = Example 5: body homeostasis, clinical observations and testicular measurement in Beagle puppies; type: in vivo, Beagle dog; conditions: 25, 30 or 35 mg per testis
Description: (§1) Forty (40) healthy, male Beagle puppies, six months of age, were divided into the following four groups according to testicular width.
The body weight of all dogs increased.
(§2) As compared to the control placebo group, serum testosterone level at twelve (12) months post-injection had (1) decreased by 43% in the 25 mg treated group, (2) decreased by 55% in the 30 mg treated group, and (3) decreased by 52% in the 35 mg treated group.

serum testosterone = assay: Example 5: serum testosterone level in Beagle puppies; type: in vivo, Beagle dog; conditions: twelve months post-injection
Description: as §1, §2

[3] = system: testes of male Beagle puppies; assay: Example 5: semen analysis of Beagle puppies; type: in vivo, Beagle dog
Description: as §1
Semen analysis was performed on a monthly basis for […]. Semen analysis at 24 months post-injection indicated the following.

male Beagle puppies = assay: Example 5: exposure of treated dogs to females in heat (copulation, pregnancy); type: in vivo, Beagle dog; conditions: for number of the ten dogs that copulated with females: each dog exposed to three females in heat
Description: as §1
Of the ten control placebo dogs, seven copulated with females and pregnancy occurred in all of the females (100% pregnancy rate). Each of the treated dogs was exposed to three different females in heat.

[4] = system: testes of male Beagle puppies; assay: Example 5: quantitative evaluation of testis histopathology; type: in vivo, Beagle dog; conditions: n = 10
Description: as §1
Quantitative information provides the strongest evidence that control and treated tissues are either alike or different. In order to obtain the very detailed information about the testes after dorsal cranial injection, quantitative evaluation of the testes histopathology was performed in 40 dogs post-injection.

testes of male puppies = assay: Example 6: clinical trial in 225 male puppies at five sites, semen analysis and physical examination; type: in vivo, dog
Description: Four hundred fifty (450) intratesticular injections were performed in the dorsal cranial area of the testes of 225 male puppies (one injection per testis; two testes per dog) at five investigational sites. The 225 puppies ranged in age from 2½ to 10 months and were of various breeds. After the necessary training, all of the investigators mastered the technique of testicular measurement and intratesticular injection (dorsal cranial). Based on the experience of these investigators in the clinical trial, all veterinarians will be able to easily use this dorsal cranial injection technique.
After at least 6 months of follow-up, semen analysis and physical examination were performed as the primary indicators of clinical trial efficacy.

[5] = system: testes of sexually mature male dogs; assay: Example 7: semen evaluation of 53 sexually mature male dogs; type: in vivo, dog; conditions: six months post-injection, one of 53 dogs
Description: Dosage was based on testicular width according to the following table.
Semen analysis of all dogs prior to injection indicated normal fertility parameters. All of the dogs were followed for six months post-injection, and semen analysis was performed at 2 month intervals for a total of three times.

[6] = dorsal cranial injection, two months
[7] = 25 mg per testis, 24 months post-injection, n = 10
[8] = 25 mg per testis, the 10% of dogs with severe oligospermia, 24 months
[9] = Total of all six doses, n = 225

## N=C(N)NCCC[C@H](N)C(=O)O.[Zn] [zinc arginine]
Testes of a male pig; injection at the dorsal cranial area (FIG. 5)
  pattern of testicular shrinkage: proportional shrinkage
Testes of a male pig; injection at the midline (FIG. 4)
  pattern of testicular shrinkage: disproportional shrinkage

## zinc gluconate neutralized by arginine
testis
  weight of each excised testis: 3.5 g
[1]; [6]
  function of the testes (histopathology): complete dysfunction in the testes
  sperm in the epididymides: no sperm were found in the epididymides
[1]; dorsal cranial injection
  infertility/sterility achieved, share of rats: 100%
[1]; midline injection, two months
  function of the testes (histopathology): some parts of the testes were functioning
  share of epididymides in which sperm were found: 30%
[1]; midline injection
  infertility/sterility achieved, share of rats: 70%
[2]
  effect on rectal temperature, complete blood count, blood chemistries: no clinical effect
[2]; all dogs
  body weight: increased
[2]; dorsal cranial
  effect on body homeostasis: None of the treatments affected body homeostasis
[2]; for one week post-injection
  testicular swelling post-injection: transient testicular swelling
[2]; p<0.0001, control placebo increased
  testicular measurement after the first week: decreased significantly
Serum testosterone; 25 mg per testis
  decrease of serum testosterone level compared to control placebo: 43%
Serum testosterone; 30 mg per testis
  decrease of serum testosterone level compared to control placebo: 55%
Serum testosterone; 35 mg per testis
  decrease of serum testosterone level compared to control placebo: 52%
[3]; [7]
  share of dogs permanently sterilized (azoospermia or aspermia): 90%
  share of dogs with severe oligospermia: 10%
[3]; [8]
  Concentration/ml (×10^6): 0.01 ×10^6/ml
  Motility: 1.00%
  Normal Sperm: 6.70%
  Volume of Ejaculation: 0.74 mL
[3]; 30 mg per testis, 24 months post-injection, n = 10
  share of dogs permanently sterilized (azoospermia or aspermia): 100%
[3]; 35 mg per testis, 24 months post-injection, n = 10
  share of dogs permanently sterilized (azoospermia or aspermia): 100%
[3]; dorsal cranial area, male puppies
  overall outcome of one intratesticular injection: permanent sterilization
Male Beagle puppies; 25 mg per testis
  number of the ten dogs that copulated with females: Two
Male Beagle puppies; 30 mg per testis
  number of the ten dogs that copulated with females: five
Male Beagle puppies; 35 mg per testis
  number of the ten dogs that copulated with females: four
Male Beagle puppies; 25, 30 and 35 mg per testis, control placebo 100% pregnancy rate
  pregnancy of females after copulation: no pregnancy occurred
[4]; 25 mg per testis
  Basement Membrane, Average: 4.80 μm
  Basement Membrane, Left: 5.00 μm
  Basement Membrane, Right: 4.59 μm
  Diameter of Seminiferous Tubule, Average: 124.00 μm
  Diameter of Seminiferous Tubule, Left: 116.0 μm
  Diameter of Seminiferous Tubule, Right: 132.0 μm
  Height of Germinal Epithelium, Average: 14.10 μm
  Height of Germinal Epithelium, Left: 11.8 μm
  Height of Germinal Epithelium, Right: 16.4 μm
[4]; 30 mg per testis
  Basement Membrane, Average: 5.53 μm
  Basement Membrane, Left: 5.50 μm
  Basement Membrane, Right: 5.57 μm
  Diameter of Seminiferous Tubule, Average: 113.75 μm
  Diameter of Seminiferous Tubule, Left: 115.1 μm
  Diameter of Seminiferous Tubule, Right: 112.4 μm
  Height of Germinal Epithelium, Average: 7.20 μm
  Height of Germinal Epithelium, Left: 5.5 μm
  Height of Germinal Epithelium, Right: 8.9 μm
[4]; 35 mg per testis
  Basement Membrane, Average: 6.00 μm
  Basement Membrane, Left: 6.04 μm
  Basement Membrane, Right: 5.96 μm
  Diameter of Seminiferous Tubule, Average: 124.05 μm
  Diameter of Seminiferous Tubule, Left: 124.8 μm
  Diameter of Seminiferous Tubule, Right: 123.3 μm
  Height of Germinal Epithelium, Average: 10.30 μm
  Height of Germinal Epithelium, Left: 9.6 μm
  Height of Germinal Epithelium, Right: 11.0 μm
Testes of male puppies; [9]
  Aspermia (No Semen Ejaculated), number of puppies: 174
  Azoospermia (No Sperm in Ejaculate), number of puppies: 48
  Necrospermia (Sperm in Ejaculate Are Dead or Motionless), number of puppies: 1
  Oligospermia (Less than 20 Million Sperm per ml), number of puppies: 1
  Sperm in Ejaculate Are Motile, number of puppies: 1
Testes of male puppies; dose per testis 0.2 ml
  Aspermia (No Semen Ejaculated), number of puppies: 59
  Azoospermia (No Sperm in Ejaculate), number of puppies: 12
  Necrospermia (Sperm in Ejaculate Are Dead or Motionless), number of puppies: 0
  Oligospermia (Less than 20 Million Sperm per ml), number of puppies: 1
  Sperm in Ejaculate Are Motile, number of puppies: 0
Testes of male puppies; dose per testis 0.3 ml
  Aspermia (No Semen Ejaculated), number of puppies: 27
  Azoospermia (No Sperm in Ejaculate), number of puppies: 5
  Necrospermia (Sperm in Ejaculate Are Dead or Motionless), number of puppies: 0
  Oligospermia (Less than 20 Million Sperm per ml), number of puppies: 0
  Sperm in Ejaculate Are Motile, number of puppies: 0
Testes of male puppies; dose per testis 0.5 ml
  Aspermia (No Semen Ejaculated), number of puppies: 21
  Azoospermia (No Sperm in Ejaculate), number of puppies: 7
  Necrospermia (Sperm in Ejaculate Are Dead or Motionless), number of puppies: 0
  Oligospermia (Less than 20 Million Sperm per ml), number of puppies: 0
  Sperm in Ejaculate Are Motile, number of puppies: 1*
Testes of male puppies; dose per testis 0.7 ml
  Aspermia (No Semen Ejaculated), number of puppies: 30
  Azoospermia (No Sperm in Ejaculate), number of puppies: 4
  Necrospermia (Sperm in Ejaculate Are Dead or Motionless), number of puppies: 0
  Oligospermia (Less than 20 Million Sperm per ml), number of puppies: 0
  Sperm in Ejaculate Are Motile, number of puppies: 0
Testes of male puppies; dose per testis 0.8 ml
  Aspermia (No Semen Ejaculated), number of puppies: 19
  Azoospermia (No Sperm in Ejaculate), number of puppies: 4
  Necrospermia (Sperm in Ejaculate Are Dead or Motionless), number of puppies: 1
  Oligospermia (Less than 20 Million Sperm per ml), number of puppies: 0
  Sperm in Ejaculate Are Motile, number of puppies: 0
Testes of male puppies; dose per testis 1.0 ml
  Aspermia (No Semen Ejaculated), number of puppies: 18
  Azoospermia (No Sperm in Ejaculate), number of puppies: 16
  Necrospermia (Sperm in Ejaculate Are Dead or Motionless), number of puppies: 0
  Oligospermia (Less than 20 Million Sperm per ml), number of puppies: 0
  Sperm in Ejaculate Are Motile, number of puppies: 0
Testes of male puppies; six different doses, 225 puppies, at least 6 months of follow-up
  efficacy (infertility/sterility): 99.6%
Testes of male puppies; six different doses, dorsal cranial, at least 6 months of follow-up
  number of puppies (of 225) in which infertility/sterility was achieved: 224
[5]
  Sperm Concentration of the dog that stayed normal: Normal 70 million/ml
